Test systems include EKVX NSCLC; HCT-116 colon; HL-60(TB) leukemia; HOP-92 NSCLC; NCI-H522 lung; OVCAR-4 ovarian; OVCAR-8 ovarian; SF-295 CNS; SNB-75 CNS; UACC-257 melanoma.
Common to all, as to experiment: NCI-60 cell line screen, 48 h

The values below come from PubChem BioAssay (NCI).

“And” between values parts separate entries of the source, which are not always exact repeats. Equal entries are not always repeated.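 These data come from cells grown in 96-well plates and exposed to compound for 48 hours at five concentrations. Here, GI50 denotes the concentration required for 50% inhibition of growth. TGI denotes the concentration required for complete inhibition of growth.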 Bounds are passed on as bounds.

For `Cc1ccccc1C1OC(=O)c2ccc3ccccc3c21` (stereo not given), the TGI in the test on EKVX NSCLC was determined as 17.5 µM; in the test with HCT-116 colon, 7.14 µM; in the test on HL-60(TB) leukemia, 8.01 µM; with HOP-92 NSCLC it was 49.9 µM; in the test on NCI-H522 lung it was 4.89 µM; in the test with OVCAR-4 ovarian, 19.2 µM. The TGI with OVCAR-8 ovarian is 12.8 µM; in the test on SF-295 CNS it was over 31.6 µM; in the test with SNB-75 CNS it was 31.3 µM; in the test with UACC-257 melanoma, 12.2 µM.

Turning to `O=[N+]([O-])c1ccc(-n2nnc(C3=NCCN3)c2-c2ccccc2)cc1`, the TGI in the test with EKVX NSCLC, with HCT-116 colon, in the test on HL-60(TB) leukemia, in the test on HOP-92 NSCLC, in the test with NCI-H522 lung and in the test on OVCAR-4 ovarian was over 100 µM throughout. Moreover, the TGI in the test with OVCAR-8 ovarian, in the test with SF-295 CNS, in the test on SNB-75 CNS and in the test with UACC-257 melanoma was over 100 µM each time.

Turning to `CC1=C(C(=O)Nc2ccc3n[nH]c(C)c3c2)C(c2ccc(C(F)(F)F)cc2)CC(=O)N1` (stereo not given), the GI50 with EKVX NSCLC was 5.89 µM; with HCT-116 colon, 12.5 µM; with HL-60(TB) leukemia it was over 25 µM; in the test with HOP-92 NSCLC it was 0.0117 µM; with NCI-H522 lung it was 9.13 µM; in the test with OVCAR-4 ovarian, 16 µM. Also, the GI50 in the test with OVCAR-8 ovarian was over 25 µM; in the test with SF-295 CNS, 16.4 µM; with SNB-75 CNS, 1.24 µM; in the test with UACC-257 melanoma, over 25 µM. In addition, the TGI is over 25 µM with EKVX NSCLC; over 25 µM in the test with HCT-116 colon; over 25 µM with HL-60(TB) leukemia; 1.46 µM with HOP-92 NSCLC; over 21.5 µM in the test with NCI-H522 lung; over 25 µM in the test with OVCAR-4 ovarian. Also, the TGI in the test on OVCAR-8 ovarian was over 25 µM; in the test on SF-295 CNS it was over 25 µM; in the test with SNB-75 CNS it was over 18.8 µM; with UACC-257 melanoma it was over 25 µM.

On to `C=CCN=C(N/N=C/c1ccc([N+](=O)[O-])o1)NS(=O)(=O)c1cc(C(=O)Nc2ccc(Cl)cc2)c(Cl)cc1SC`, for which the GI50 with EKVX NSCLC was 2.63 µM; in the test on HCT-116 colon it was 0.935 µM; in the test with HL-60(TB) leukemia, 1.05 µM; in the test with HOP-92 NSCLC, 4.94 µM; with NCI-H522 lung, over 58.8 µM; in the test on SF-295 CNS, over 100 µM. The GI50 in the test on SNB-75 CNS was over 100 µM; with UACC-257 melanoma, 4.28 µM. The TGI is 6.58 µM with EKVX NSCLC; 4.04 µM with HCT-116 colon; 8.09 µM in the test with HL-60(TB) leukemia; over 100 µM with HOP-92 NSCLC; over 100 µM with NCI-H522 lung; over 34.1 µM in the test on OVCAR-4 ovarian. In addition, the TGI is over 20.7 µM in the test on OVCAR-8 ovarian, over 100 µM in the test on SF-295 CNS, over 100 µM in the test with SNB-75 CNS and over 59.9 µM with UACC-257 melanoma.

On to `C[C@H]1CC[C@@]2(NC1)O[C@H]1C[C@H]3[C@@H]4CC[C@H]5C[C@@H](O)CC[C@]5(C)[C@H]4CC[C@]3(C)[C@H]1[C@@H]2C`, for which the TGI in the test with EKVX NSCLC was over 100 µM; in the test with HCT-116 colon, 17.3 µM and > 100 µM; in the test on HL-60(TB) leukemia it was 50 µM and > 100 µM; in the test with HOP-92 NSCLC, over 100 µM; with NCI-H522 lung, 29.3 µM and > 100 µM; in the test with OVCAR-4 ovarian, 50 µM and > 100 µM. The TGI in the test on OVCAR-8 ovarian is 50 µM and > 100 µM; with SF-295 CNS, 42.9 µM and > 100 µM; with SNB-75 CNS, 24.7 µM and > 100 µM; in the test with UACC-257 melanoma, 50 µM and > 100 µM. Further, the GI50 was 8.32 µM in the test with HCT-116 colon; 42.5 µM in the test on HL-60(TB) leukemia; 13.6 µM in the test on NCI-H522 lung; 17.3 µM in the test on OVCAR-4 ovarian; 14.8 µM with SF-295 CNS; 10.9 µM in the test with SNB-75 CNS. Further, the GI50 in the test on UACC-257 melanoma was 22 µM.

In the case of `OC1(C23CC4CC(CC(C4)C2)C3)CSCC1(O)C12CC3CC(CC(C3)C1)C2` (stereo not given), the TGI is over 100 µM in the test with EKVX NSCLC; over 100 µM with HCT-116 colon; over 10 µM with HL-60(TB) leukemia; over 100 µM with HOP-92 NSCLC; over 100 µM in the test with NCI-H522 lung; over 100 µM with OVCAR-4 ovarian. Further, the TGI with OVCAR-8 ovarian, with SF-295 CNS, in the test on SNB-75 CNS and with UACC-257 melanoma was over 100 µM throughout.

Regarding `CC(=O)N1CC(C)(C)c2c(C)c(O)c(C)c(C)c21`, the TGI in the test on EKVX NSCLC, in the test on HCT-116 colon, with HL-60(TB) leukemia, in the test on HOP-92 NSCLC, in the test with NCI-H522 lung and in the test on OVCAR-4 ovarian was over 100 µM each time. For the same compound, the TGI in the test with OVCAR-8 ovarian, with SF-295 CNS, with SNB-75 CNS and in the test on UACC-257 melanoma was over 100 µM in each case.

With `COC1CC(O[C@H]2CC[C@@]3(C)[C@H](CC[C@@H]4[C@@H]3CC[C@]3(C)[C@@H](C5=CC(=O)OC5)[C@@H](OC(C)=O)C[C@]43O)C2)OC(C)C1O` (stereo not given in full), the GI50 in the test on EKVX NSCLC, in the test on HCT-116 colon, in the test on HL-60(TB) leukemia, with HOP-92 NSCLC, with NCI-H522 lung and in the test on OVCAR-4 ovarian was under 0.01 µM throughout. The GI50 in the test with OVCAR-8 ovarian, with SF-295 CNS, with SNB-75 CNS and with UACC-257 melanoma was under 0.01 µM throughout. The TGI in the test with EKVX NSCLC was under 0.01 µM; in the test on HCT-116 colon, under 0.01 µM; in the test with HL-60(TB) leukemia, under 0.0331 µM; in the test with HOP-92 NSCLC it was under 0.01 µM; with NCI-H522 lung it was under 0.01 µM; in the test with OVCAR-4 ovarian, under 0.01 µM. For the same compound, the TGI in the test with OVCAR-8 ovarian, in the test with SF-295 CNS, in the test on SNB-75 CNS and in the test with UACC-257 melanoma was under 0.01 µM throughout.

Turning to `Cc1c(C(=O)Nc2ccccc2)sc2ncn(Cc3cccc(Cl)c3)c(=O)c12`, the GI50 with EKVX NSCLC is 30.2 µM; in the test with HCT-116 colon, 19.2 µM; in the test on HL-60(TB) leukemia it was 16.3 µM; in the test with HOP-92 NSCLC it was 16.5 µM; in the test on NCI-H522 lung it was 19 µM; in the test with OVCAR-4 ovarian, 27.8 µM. The GI50 in the test with OVCAR-8 ovarian was 28.7 µM; in the test on SF-295 CNS it was 32.4 µM; in the test on SNB-75 CNS, 33.3 µM; with UACC-257 melanoma it was 34.4 µM. Further, the TGI in the test with EKVX NSCLC was over 100 µM; in the test with HCT-116 colon, over 100 µM; in the test on HL-60(TB) leukemia it was over 100 µM; with HOP-92 NSCLC it was 40.5 µM; in the test with NCI-H522 lung, over 100 µM; in the test on OVCAR-4 ovarian, over 100 µM. Moreover, the TGI in the test with OVCAR-8 ovarian was 89.1 µM; with SF-295 CNS it was over 100 µM; with SNB-75 CNS, over 100 µM; with UACC-257 melanoma it was over 100 µM.
